Results as given in patent publication US8338608B2, “Inhibitors of ion channels” (Icagen Inc., priority 2005, dated 2012).

Target: T1, hSCN3A (Homo sapiens, UniProt Q9NY46)
T1 construct: expressed in transfected cells
Assay: SCN3A inhibitory activity in HEK cells stably expressing hSCN3A (whole-cell patch clamp / radiotracer efflux HTS)
Assay type: cell-based
Details: HEK cells stably transfected with hSCN3A; read-out: SCN3A Inhibitory Activity

T1 sequence (Q9NY46 whole entry): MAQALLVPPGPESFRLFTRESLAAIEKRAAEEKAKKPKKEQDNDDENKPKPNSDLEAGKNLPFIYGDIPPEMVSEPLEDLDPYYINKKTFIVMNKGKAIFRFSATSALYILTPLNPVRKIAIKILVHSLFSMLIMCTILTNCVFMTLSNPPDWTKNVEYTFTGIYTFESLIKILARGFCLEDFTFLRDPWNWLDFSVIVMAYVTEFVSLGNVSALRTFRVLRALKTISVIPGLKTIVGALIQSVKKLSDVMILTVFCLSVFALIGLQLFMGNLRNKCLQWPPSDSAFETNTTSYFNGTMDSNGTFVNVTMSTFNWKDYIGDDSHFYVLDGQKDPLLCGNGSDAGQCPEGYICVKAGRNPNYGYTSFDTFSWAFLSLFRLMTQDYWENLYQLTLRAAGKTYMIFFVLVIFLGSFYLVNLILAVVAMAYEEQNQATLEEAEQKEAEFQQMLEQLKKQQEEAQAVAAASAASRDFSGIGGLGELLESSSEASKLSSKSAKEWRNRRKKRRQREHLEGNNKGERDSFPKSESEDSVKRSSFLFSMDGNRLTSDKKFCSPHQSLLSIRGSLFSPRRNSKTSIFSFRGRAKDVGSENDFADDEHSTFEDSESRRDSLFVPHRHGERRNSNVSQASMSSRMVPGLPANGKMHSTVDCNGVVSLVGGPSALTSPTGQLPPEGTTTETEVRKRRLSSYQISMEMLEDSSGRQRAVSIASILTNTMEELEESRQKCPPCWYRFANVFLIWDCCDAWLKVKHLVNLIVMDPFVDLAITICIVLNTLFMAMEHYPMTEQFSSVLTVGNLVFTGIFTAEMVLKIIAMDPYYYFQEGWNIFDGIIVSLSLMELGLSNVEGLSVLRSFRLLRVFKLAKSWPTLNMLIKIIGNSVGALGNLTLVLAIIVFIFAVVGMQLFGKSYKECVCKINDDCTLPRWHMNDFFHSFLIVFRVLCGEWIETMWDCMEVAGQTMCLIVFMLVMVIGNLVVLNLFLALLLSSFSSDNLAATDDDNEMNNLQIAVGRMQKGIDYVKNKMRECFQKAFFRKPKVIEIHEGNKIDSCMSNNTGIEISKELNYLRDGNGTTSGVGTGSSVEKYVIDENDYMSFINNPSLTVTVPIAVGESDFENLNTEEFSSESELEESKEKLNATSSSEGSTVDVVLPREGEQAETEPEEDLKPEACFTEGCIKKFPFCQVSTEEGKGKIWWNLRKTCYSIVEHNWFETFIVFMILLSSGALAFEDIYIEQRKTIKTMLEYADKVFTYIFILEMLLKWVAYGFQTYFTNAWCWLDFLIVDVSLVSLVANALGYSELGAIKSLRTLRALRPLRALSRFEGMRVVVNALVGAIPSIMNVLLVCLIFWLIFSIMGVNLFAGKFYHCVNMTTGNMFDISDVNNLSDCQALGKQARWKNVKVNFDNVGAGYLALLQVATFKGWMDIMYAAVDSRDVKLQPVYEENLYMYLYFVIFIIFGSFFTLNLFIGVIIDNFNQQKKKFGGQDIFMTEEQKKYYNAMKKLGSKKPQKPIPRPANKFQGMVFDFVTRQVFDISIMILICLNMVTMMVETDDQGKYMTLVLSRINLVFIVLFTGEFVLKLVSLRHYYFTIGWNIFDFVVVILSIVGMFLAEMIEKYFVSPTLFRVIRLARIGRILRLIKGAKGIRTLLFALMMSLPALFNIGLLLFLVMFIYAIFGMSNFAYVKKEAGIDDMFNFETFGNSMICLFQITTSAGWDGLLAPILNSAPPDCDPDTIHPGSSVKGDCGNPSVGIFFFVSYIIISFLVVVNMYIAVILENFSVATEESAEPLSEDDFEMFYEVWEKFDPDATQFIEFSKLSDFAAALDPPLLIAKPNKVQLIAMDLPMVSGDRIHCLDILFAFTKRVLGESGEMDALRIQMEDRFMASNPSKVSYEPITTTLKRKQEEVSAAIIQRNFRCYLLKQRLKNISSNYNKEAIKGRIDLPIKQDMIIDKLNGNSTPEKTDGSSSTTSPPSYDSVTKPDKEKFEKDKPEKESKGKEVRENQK

How did the IC50 turn out when `O=S(=O)(Nc1ccc(S(=O)(=O)Nc2nccs2)cc1)N[C@@H]1C[C@H]1c1ccccc1` (relative stereo) [Compound 4, N-(trans-2-phenylcyclopropyl)-N′-[4-(N-thiazol-2-yl-sulfonamyl)-phenyl]-sulfamide] was run?
Its IC50 is < 100 nM.

How did the IC50 turn out when `O=S(=O)(NCC(c1ccccc1)c1ccccc1)Nc1ccc(S(=O)(=O)Nc2nccs2)cc1` [Compound 1] was run?
The IC50 was < 100 nM.

`O=S(=O)(NCCC(c1ccccc1)c1ccccc1)Nc1ccc(S(=O)(=O)Nc2nccs2)cc1` [Compound 2, N-(3,3-diphenylpropyl]-N′-[4-(N-thiazol-2-yl-sulfonamyl)-phenyl]-sulfamide] was tested. Which IC50 did it give?
The IC50 was < 100 nM.

With `O=S(=O)(NCCc1ccc(Cl)c(Cl)c1)Nc1ccc(S(=O)(=O)Nc2nccs2)cc1` [Compound 3] as the molecule, how does the IC50 read?
Its IC50 is < 100 nM.

With `O=S(=O)(NCCc1ccc(Oc2ccccc2)cc1)Nc1ccc(S(=O)(=O)Nc2nccs2)cc1` [Compound 5, N-[2-(4-phenoxyl-phenyl)-ethyl]-N′-[4-(N-thiazol-2-yl-sulfonamyl)-phenyl]-sulfamide] as the molecule, how does the IC50 read?
Its IC50 is < 100 nM.

For `CC(C)(C)c1ccc(OCCNS(=O)(=O)c2ccc(S(=O)(=O)Nc3ncc(Cl)s3)cc2)cc1` [Compound 6, Benzene-1,4-disulfonic acid 1-{[2-(4-tert-butyl-phenoxy)-ethyl]-amide} 4-[(5-chloro-thiazol-2-yl)-amide]], which IC50 is on record?
Its IC50 is < 100 nM.

With `CC(C)(C)CCNS(=O)(=O)c1ccc(S(=O)(=O)Nc2ncc(Cl)s2)cc1` [Compound 7, Benzene-1,4-disulfonic acid 1-[(5-chloro-thiazol-2-yl)-amide] 4-[(3,3-dimethyl-butyl)-amide]] as the molecule, how does the IC50 read?
Its IC50 is < 100 nM.

With `O=S(=O)(Nc1nccs1)c1ccc(S(=O)(=O)N2CCC(Oc3cccc(Cl)c3)CC2)cc1` [Compound 8, 4-[4-(3-Chloro-phenoxy)-piperidine-1-sulfonyl]-N-thiazol-2-yl-benzenesulfonamide] as the molecule, how does the IC50 read?
The IC50 was < 100 nM.

With `O=S(=O)(NCC1COc2cc(Cl)c(Cl)cc2O1)c1ccc(S(=O)(=O)Nc2nccs2)cc1` (stereo not shown) [Compound 9, Benzene-1,4-disulfonic acid 1-[(6,7-dichloro-2,3-dihydro-benzo[1,4]dioxin-2-ylmethyl)-amide] 4-thiazol-2-ylamide] as the molecule, how does the IC50 read?
The IC50 was < 100 nM.

For `O=S(=O)(Nc1ncc(Cl)s1)c1ccc(S(=O)(=O)N2CCN(c3ccc(Cl)cc3F)CC2)cc1` [Compound 10, 4-[4-(4-Chloro-2-fluoro-phenyl)-piperazine-1-sulfonyl]-N-(5-chloro-thiazol-2-yl)-benzenesulfonamide], which IC50 is on record?
The IC50 was < 100 nM.

For `CC(C)(C)c1ccc(CNS(=O)(=O)c2ccc(S(=O)(=O)Nc3nccs3)cc2)cc1` [Compound 11, Benzene-1,4-disulfonic acid 1-(4-tert-butyl-benzylamide) 4-thiazol-2-ylamide], which IC50 is on record?
Its IC50 is < 100 nM.

For `O=S(=O)(NCCCOc1ccc(Cl)cc1)c1ccc(S(=O)(=O)Nc2ncc(Cl)s2)cc1` [Compound 12, Benzene-1,4-disulfonic acid 1-{[3-(4-chloro-phenoxy)-propyl]-amide} 4-[(5-chloro-thiazol-2-yl)-amide]], which IC50 is on record?
The IC50 was < 100 nM.

With `CN(CCNS(=O)(=O)c1ccc(S(=O)(=O)Nc2nccs2)cc1)c1ccc(Cl)cc1` [Compound 13, Benzene-1,4-disulfonic acid 1-({2-[(4-chloro-phenyl)-methyl-amino]-ethyl}-amide) 4-thiazol-2-ylamide] as the molecule, how does the IC50 read?
Its IC50 is < 100 nM.

For `CC(C)(CNS(=O)(=O)c1ccc(S(=O)(=O)Nc2ncc(Cl)s2)cc1)Oc1ccc(C(C)(C)C)cc1` [Compound 14, Benzene-1,4-disulfonic acid 1-{[2-(4-tert-butyl-phenoxy)-2-methyl-propyl]-amide} 4-[(5-chloro-thiazol-2-yl)-amide]], which IC50 is on record?
Its IC50 is < 100 nM.

Which IC50 does the source give for `O=S(=O)(NCc1ccc(C(F)(F)F)cc1)c1ccc(S(=O)(=O)Nc2ncc(Cl)s2)cc1` [Compound 15, Benzene-1,4-disulfonic acid 1-[(5-chloro-thiazol-2-yl)-amide] 4-(4-trifluoromethyl-benzylamide)] here?
Its IC50 is < 100 nM.

For `CC(C)(C)c1ccc(NCCNS(=O)(=O)c2ccc(S(=O)(=O)Nc3nccs3)cc2)cc1` [Compound 16, Benzene-1,4-disulfonic acid 1-{[2-(4-tert-butyl-phenylamino)-ethyl]-amide} 4-thiazol-2-ylamide], which IC50 is on record?
The IC50 was < 100 nM.

Which IC50 does the source give for `O=S(=O)(NCC1(Oc2ccc(Cl)cc2)CCC1)c1ccc(S(=O)(=O)Nc2nccs2)cc1` [Compound 17, Benzene-1,4-disulfonic acid 1-{[1-(4-chloro-phenoxy)-cyclobutylmethyl]-amide} 4-thiazol-2-ylamide] here?
Its IC50 is < 100 nM.

How did the IC50 turn out when `Cc1cc(OCCNS(=O)(=O)c2ccc(S(=O)(=O)Nc3nccs3)cc2)ccc1Cl` [Compound 18, Benzene-1,4-disulfonic acid 1-{[2-(4-chloro-3-methyl-phenoxy)-ethyl]-amide} 4-thiazol-2-ylamide] was run?
The IC50 was < 100 nM.

With `O=S(=O)(Nc1nccs1)c1ccc(S(=O)(=O)N2CCC[C@H]2COc2ccc(Cl)cc2)cc1` [Compound 19, 4-[(S)-2-(4-chloro-phenoxymethyl)-pyrrolidine-1-sulfonyl]-N-thiazol-2-yl-benzenesulfonamide] as the molecule, how does the IC50 read?
Its IC50 is < 100 nM.

`O=S(=O)(NCC1(Oc2ccc(Cl)cc2F)CCC1)c1ccc(S(=O)(=O)Nc2nccs2)cc1` [Compound 20, Benzene-1,4-disulfonic acid 1-{[1-(4-chloro-2-fluoro-phenoxy)-cyclobutylmethyl]-amide} 4-thiazol-2-ylamide] was tested. Which IC50 did it give?
The IC50 was < 100 nM.

`O=S(=O)(NCC1(c2ccc(Cl)cc2)CCC1)c1ccc(S(=O)(=O)Nc2nccs2)cc1` [Compound 21, Benzene-1,4-disulfonic acid 1-{[1-(4-chloro-phenyl)-cyclobutylmethyl]-amide} 4-thiazol-2-ylamide] was tested. Which IC50 did it give?
The IC50 was < 100 nM.

For `O=S(=O)(NCCC(c1ccccc1)c1ccccc1)Nc1ccc(S(=O)(=O)Nc2nccs2)nc1` [Compound 22], which IC50 is on record?
Its IC50 is 100 to 500 nM.

With `O=S(=O)(Nc1nccs1)c1ccc(NS(=O)(=O)N2CCN(c3ccc(Cl)c(Cl)c3)CC2)cc1` [Compound 23, 4-(3,4-Dichloro-phenyl)-piperazine-1-sulfonic acid [4-(thiazol-2-ylsulfamoyl)-phenyl]-amide] as the molecule, how does the IC50 read?
The IC50 was 100 to 500 nM.

For `O=S(=O)(NCC(c1ccccc1)c1ccccc1)c1ccc(S(=O)(=O)Nc2nccs2)cc1` [Compound 24, Benzene-1,4-disulfonic acid 1-[(2,2-diphenyl-ethyl)-amide] 4-thiazol-2-ylamide], which IC50 is on record?
Its IC50 is 100 to 500 nM.

How did the IC50 turn out when `O=S(=O)(NCCc1ccc(Cl)c(Cl)c1)c1cc(F)c(S(=O)(=O)Nc2nccs2)cc1F` [Compound 25, 2,5-Difluoro-benzene-1,4-disulfonic acid 1-{[2-(3,4-dichloro-phenyl)-ethyl]-amide} 4-thiazol-2-ylamide] was run?
Its IC50 is 100 to 500 nM.

Which IC50 does the source give for `O=S(=O)(Nc1ncc(Cl)s1)c1ccc(S(=O)(=O)N2CC(Oc3ncc(C(F)(F)F)cc3Cl)C2)cc1` [Compound 26, N-(5-chloro-thiazol-2-yl)-4-[3-(3-chloro-5-trifluoromethyl-pyridin-2-yloxy)-azetidine-1-sulfonyl]-benzenesulfonamide] here?
Its IC50 is 100 to 500 nM.

Which IC50 does the source give for `O=S(=O)(NCCc1ccc(Cl)cc1)c1ccc(S(=O)(=O)Nc2nccs2)cc1` [Compound 27, Benzene-1,4-disulfonic acid 1-{[2-(4-chloro-phenyl)-ethyl]-amide} 4-thiazol-2-ylamide] here?
The IC50 was 100 to 500 nM.

`O=S(=O)(Nc1ncc(Cl)s1)c1ccc(S(=O)(=O)N2CC(=Cc3ccc(Cl)c(Cl)c3)C2)cc1` [Compound 28, N-(5-chloro-thiazol-2-yl)-4-[3-(3,4-dichloro-benzylidene)-azetidine-1-sulfonyl]-benzenesulfonamide] was tested. Which IC50 did it give?
Its IC50 is 100 to 500 nM.
